Measured values from US9775878B2, “Methods for treating bacterial infections using oritavancin and polymyxins” (The Medicines Company, priority 2013, dated 2017).
Like-named read-outs stand apart in the source and are kept apart here.

Assays:
[1] = test system: Acinetobacter baumannii strains; experiment: Broth macrodilution MICs under conditions used for synergy time-kill assays; type: cell-based
[2] = test system: Acinetobacter baumannii strains; experiment: Synergy time-kill assay; type: cell-based; conditions: concentration of the agent within the ORI+COL combination, ≧2 log CFU/mL decrease vs most active constituent at 24 h, 0.002% P80
Procedure: (§1) Broth microdilution MIC testing (CLSI M07-A9) was performed on the Acinetobacter baumannii (AB) reference strain ATCC 19606 (obtained from ATCC) and 10 AB strains, including 8 MDRAB (resistant to ≧3 of the following: beta-lactams, gentamicin, fluoroquinolones and tetracycline; obtained from Eurofins Medinet Chantilly, Va.). The requirement of 0.002% polysorbate 80 (P-80) for testing oritavancin also necessitated the testing of COL in the presence of P80. Checkerboard assays were used to determine activity of antimicrobial combinations; fractional inhibitory concentration indices (FICI) were used to define synergy, indifference or antagonism. Broth macrodilution MICs were determined following conditions used for synergy time-kill assays. Synergy time-kill studies were performed following CLSI guidelines.
Time-kill assays followed CLSI guidelines (NCCLS, CLSI document M26-A2, 1999) with the exception that 96 deep-well plates were used. Exponential-phase bacteria were diluted to approximately 5×10^5 colony-forming units (CFU)/mL and exposed to ORI or COL alone, or in combination in CAMHB containing 0.002% P80. Bacteria were enumerated by serial dilution plating. To prevent drug carryover during serial dilution plating, aliquots of the drug-challenged culture were added to an equal volume of 25 mg/mL activated charcoal suspension. […] All experiments were repeated at least two times and a representative experiment is presented in the plots; data points are an average of duplicate CFU/mL determinations within an experiment.

[3] = test system: S. aureus (MSSA, MRSA, VRSA); conditions: within 15 minutes to 2 hours, MRSA and VRSA; cited from earlier work
[4] = test system: Acinetobacter baumannii strains; experiment: Broth macrodilution MICs under conditions used for synergy time-kill assays; type: cell-based; conditions: for MIC: Acinetobacter baumannii, read-out: Broth macrodilution MICs
Procedure: as §1
(§2) Minimum inhibitory concentrations (MICs). Broth microdilution MICs were determined according to CLSI (CLSI document M7-A9, 2013) guidelines with the exception that COL MICs were also determined in the presence of 0.002% polysorbate 80 (P80) since P80 was to be present in the combination tests because of its requirement for testing oritavancin. Broth macrodilution MICs were determined following conditions used for synergy time-kill assays.

[5] = test system: Acinetobacter baumannii strains; experiment: Broth microdilution MIC of colistin in absence and presence of 0.002% polysorbate 80; type: cell-based; conditions: for Colistin MIC −P80: absence of polysorbate 80; for Colistin MIC +P80: presence of 0.002% polysorbate-80
Procedure: as §1, with “([…])” for “(AB) reference strain ATCC 19606 (obtained from ATCC)”
as §2

[6] = strain 2691748 (Non-MDR), agent alone, time-kill conditions
[7] = strain 2691818 (Non-MDR), agent alone, time-kill conditions
[8] = strain 2691999 (MDR), agent alone, time-kill conditions
[9] = strain 2692406 (MDR), agent alone, time-kill conditions
[10] = strain 2692650 (MDR), agent alone, time-kill conditions
[11] = strain 2693922 (MDR), agent alone, time-kill conditions
[12] = strain 2694038 (MDR), agent alone, time-kill conditions
[13] = strain 2694224 (MDR), agent alone, time-kill conditions
[14] = strain 2694227 (MDR), agent alone, time-kill conditions

With `CN[C@H](CC(C)C)C(=O)N[C@H]1C(=O)N[C@@H](CC(N)=O)C(=O)N[C@H]2C(=O)N[C@H]3C(=O)N[C@H](C(=O)N[C@H](C(=O)O)c4cc(O)cc(O)c4-c4cc3ccc4O)[C@H](O[C@H]3C[C@](C)(N)[C@@H](O)[C@H](C)O3)c3ccc(c(Cl)c3)Oc3cc2cc(c3O[C@@H]2O[C@H](CO)[C@@H](O)[C@H](O)[C@H]2O[C@H]2C[C@](C)(NCc3ccc(-c4ccc(Cl)cc4)cc3)[C@@H](O)[C@H](C)O2)Oc2ccc(cc2Cl)[C@H]1O` [ORI, Oritavancin] the MIC ([1]; ATCC19609, read-out: Broth macrodilution MICs) was > 8 µg/mL, the “Concentrations that yielded synergy in time-kill” value ([2]; strain 2691748 (Non-MDR)) was 8 µg/mL and the “Concentrations that yielded synergy in time-kill” value ([2]; strain 2691818 (Non-MDR)) was 4 µg/mL. For the same compound, the “Concentrations that yielded synergy in time-kill” value ([2]; strain 2691999 (MDR)) was 4 µg/mL, the “Concentrations that yielded synergy in time-kill” value ([2]; strain 2692406 (MDR)) was 4 µg/mL and the “Concentrations that yielded synergy in time-kill” value ([2]; strain 2692650 (MDR)) was 4 µg/mL. For the same compound, the “Concentrations that yielded synergy in time-kill” value ([2]; strain 2692721 (MDR)) was 4 µg/mL, the “Concentrations that yielded synergy in time-kill” value ([2]; strain 2693922 (MDR)) was 4 µg/mL and the “Concentrations that yielded synergy in time-kill” value ([2]; strain 2694038 (MDR)) was 4 µg/mL. The “Concentrations that yielded synergy in time-kill” value ([2]; strain 2694224 (MDR)) was 4 µg/mL, the “Concentrations that yielded synergy in time-kill” value ([2]; strain 2694227 (MDR)) was 4 µg/mL and the “Concentrations that yielded synergy in time-kill” value ([2]; strain ATCC 19609 (Non-MDR)) was 4 µg/mL. For the same compound, the “Reduction of exponentially-growing S. aureus (rapidity of bactericidal activity)” value [3] was ≥ 3 log, the MIC [4] was > 8 µg/mL and the “Broth macrodilution MICs” value [4, 6] was >8 µg/mL. For the same compound, the “Broth macrodilution MICs” value [4, 7] was >8 µg/mL, the “Broth macrodilution MICs” value [4, 8] was >8 µg/mL and the “Broth macrodilution MICs” value [4, 9] was >8 µg/mL. The “Broth macrodilution MICs” value [4, 10] was >8 µg/mL, the “Broth macrodilution MICs” value [4, 11] was >8 µg/mL and the “Broth macrodilution MICs” value [4, 12] was >8 µg/mL. The “Broth macrodilution MICs” value [4, 13] was >8 µg/mL and the “Broth macrodilution MICs” value [4, 14] was >8 µg/mL.
With `CCC(C)CCCC(=O)N[C@H](CCN)C(=O)N[C@H](C(=O)N[C@@H](CCN)C(=O)N[C@H]1CCNC(=O)[C@H]([C@@H](C)O)NC(=O)[C@H](CCN)NC(=O)[C@H](CCN)NC(=O)[C@H](CC(C)C)NC(=O)[C@@H](CC(C)C)NC(=O)[C@H](CCN)NC1=O)[C@@H](C)O` (stereo in doubt) [COL, Colistin] the MIC ([1]; ATCC19609, strain ATCC 19609 (Non-MDR), agent alone, time-kill conditions, read-out: Broth macrodilution MICs) was 0.25 µg/mL, the “Concentrations that yielded synergy in time-kill” value ([2]; strain 2691748 (Non-MDR)) was 1 µg/mL and the “Concentrations that yielded synergy in time-kill” value ([2]; strain 2691818 (Non-MDR)) was 0.12 µg/mL. The “Concentrations that yielded synergy in time-kill” value ([2]; strain 2691999 (MDR)) was 0.12 µg/mL, the “Concentrations that yielded synergy in time-kill” value ([2]; strain 2692406 (MDR)) was 0.12 µg/mL and the “Concentrations that yielded synergy in time-kill” value ([2]; strain 2692650 (MDR)) was 0.12 µg/mL. The “Concentrations that yielded synergy in time-kill” value ([2]; strain 2692721 (MDR)) was 0.12 µg/mL, the “Concentrations that yielded synergy in time-kill” value ([2]; strain 2693922 (MDR)) was 0.12 µg/mL and the “Concentrations that yielded synergy in time-kill” value ([2]; strain 2694038 (MDR)) was 0.06 µg/mL. The “Concentrations that yielded synergy in time-kill” value ([2]; strain 2694224 (MDR)) was 0.12 µg/mL, the “Concentrations that yielded synergy in time-kill” value ([2]; strain 2694227 (MDR)) was 0.12 µg/mL and the “Concentrations that yielded synergy in time-kill” value ([2]; strain ATCC 19609 (Non-MDR)) was 0.06 µg/mL. The “Fold change in MIC (−P80/+P80)” value ([5]; strain 2691748 (Non-MDR)) was 8, the Colistin MIC −P80 ([5]; strain 2691748 (Non-MDR)) was 4 µg/mL and the Colistin MIC +P80 ([5]; strain 2691748 (Non-MDR)) was 0.5 µg/mL. The “Fold change in MIC (−P80/+P80)” value ([5]; strain 2691818 (Non-MDR)) was 2, the Colistin MIC −P80 ([5]; strain 2691818 (Non-MDR)) was 2 µg/mL and the Colistin MIC +P80 ([5]; strain 2691818 (Non-MDR)) was 1 µg/mL. For the same compound, the “Fold change in MIC (−P80/+P80)” value ([5]; strain 2691999 (MDR)) was 4, the Colistin MIC −P80 ([5]; strain 2691999 (MDR)) was 1 µg/mL and the Colistin MIC +P80 ([5]; strain 2691999 (MDR)) was 0.25 µg/mL. For the same compound, the “Fold change in MIC (−P80/+P80)” value ([5]; strain 2692406 (MDR)) was 16, the Colistin MIC −P80 ([5]; strain 2692406 (MDR)) was 2 µg/mL and the Colistin MIC +P80 ([5]; strain 2692406 (MDR)) was 0.125 µg/mL. The “Fold change in MIC (−P80/+P80)” value ([5]; strain 2692650 (MDR)) was 4, the Colistin MIC −P80 ([5]; strain 2692650 (MDR)) was 0.5 µg/mL and the Colistin MIC +P80 ([5]; strain 2692650 (MDR)) was 0.125 µg/mL. The “Fold change in MIC (−P80/+P80)” value ([5]; strain 2692721 (MDR)) was 4, the Colistin MIC −P80 ([5]; strain 2692721 (MDR)) was 1 µg/mL and the Colistin MIC +P80 ([5]; strain 2692721 (MDR)) was 0.25 µg/mL. The “Fold change in MIC (−P80/+P80)” value ([5]; strain 2693922 (MDR)) was 4, the Colistin MIC −P80 ([5]; strain 2693922 (MDR)) was 0.5 µg/mL and the Colistin MIC +P80 ([5]; strain 2693922 (MDR)) was 0.125 µg/mL. The “Fold change in MIC (−P80/+P80)” value ([5]; strain 2694038 (MDR)) was 4, the Colistin MIC −P80 ([5]; strain 2694038 (MDR)) was 1 µg/mL and the Colistin MIC +P80 ([5]; strain 2694038 (MDR)) was 0.25 µg/mL. The “Fold change in MIC (−P80/+P80)” value ([5]; strain 2694224 (MDR)) was 4, the Colistin MIC −P80 ([5]; strain 2694224 (MDR)) was 1 µg/mL and the Colistin MIC +P80 ([5]; strain 2694224 (MDR)) was 0.25 µg/mL. For the same compound, the “Fold change in MIC (−P80/+P80)” value ([5]; strain 2694227 (MDR)) was 8, the Colistin MIC −P80 ([5]; strain 2694227 (MDR)) was 1 µg/mL and the Colistin MIC +P80 ([5]; strain 2694227 (MDR)) was 0.125 µg/mL. The “Fold change in MIC (−P80/+P80)” value ([5]; strain ATCC 19609 (Non-MDR)) was 4, the Colistin MIC −P80 ([5]; strain ATCC 19609 (Non-MDR)) was 1 µg/mL and the Colistin MIC +P80 ([5]; strain ATCC 19609 (Non-MDR)) was 0.25 µg/mL. The MIC [4, 6] was > 16 µg/mL, the MIC [4, 7] was 0.25 µg/mL and the MIC [4, 8] was 1 µg/mL. For the same compound, the MIC [4, 9] was 0.25 µg/mL, the MIC [4, 10] was 0.25 µg/mL and the MIC ([4]; strain 2692721 (MDR), agent alone, time-kill conditions) was 0.5 µg/mL. It also gave an MIC [4, 11] of 0.5 µg/mL, an MIC [4, 12] of 0.12 µg/mL and an MIC [4, 13] of 0.5 µg/mL. The MIC [4, 14] was 0.5 µg/mL.
